Source: patent publication US7405181B2, “Bio-fertilizer composition for promoting growth or orchid plants and application” (National Taiwan University, priority 2005, dated 2008)

Legend:
[1] = test system: Doritaenopsis casablanca Joy × Phalaenopsis taida Pinlong; assay: Flowering rates with bio-fertilizer and plant growth substance; type: in vivo; conditions: room temperature
Protocol: (§1) Phalaenopsis amabili and Doritaenopsis casablanca Joy×Phalaenopsis taida Pinlong are treated with either bio-fertilizer composition Mb or plant growth regulators Gibberellic Acid (GA3), or both. The flowering rates are observed after incubation.

Phalaenopsis amabilis = assay: as above; type: in vivo; conditions: room temperature
Protocol: as §1

C=C1C[C@]23C[C@@]1(O)CC[C@H]2[C@@]12C=C[C@H](O)[C@@](C)(C(=O)O1)[C@H]2[C@@H]3C(=O)O [NM + GA3, Gibberellic Acid]
flowering rate [1]: 71% | flowering rate (Phalaenopsis amabilis): 75%
